One data set deals with HeLa CARP-1 ko cells. Nature of the data set: MTT cell viability. In kind it is cell-based, human.
The nature of data set [1]: MTT cell viability. The data set is classed as cell-based. The settings on record: human, wild-type HeLa cells; read-out: reduction in the viabilities.
In a further data set the test system is cleaved RIPK1. The data set can be described thus: Western blot for RIPK1 cleavage. In kind it is cell-based. The source says:
(§1) The cells were lysed to prepare protein extracts.

Data set [2] has as its system p65/RelA activation and phosphorylation of NEMO. Nature of the data set: Western blot for canonical NF-κB activation. The data set is classed as cell-based. The following applies: in presence of SNI-1.
Text: as §1

The test system of a further data set is murine TNBC cells. The data set can be described thus: Cytokine ELISA of culture media. In kind it is cell-based. The settings on record: single agent.
The subject of data set [3] is mammospheres derived from human TNBC PDX tumors. The data set can be described thus: Three-dimensional mammosphere assay (MTT). The settings on record: SNI-1 2.5 or 5.0 μM, Adriamycin 5 μM, 48 h. The data set is classed as cell-based.
Protocol: Three-dimensional Mammosphere Assays: The PDX tumor cells were dissociated from the tumor fragments, and cultured for 2-dimensional and mammosphere studies in vitro (Cheriyan et al. (2016) Oncotarget 7, 73370-73388). Briefly, the cells were washed twice in 1×PBS, trypsinized, and pelleted at 200×g at room temperature. Cells were then re-suspended in 5 ml of mammosphere media (DMEM/F12 containing 2 mM L-glutamine, 100 U/ml penicillin, 100 U/ml streptomycin, 1×B27 supplement, 20 ng/ml recombinant human epidermal growth factor (EGF; Sigma), 10 ng/ml recombinant human basic fibroblast growth factor (bFGF; R&D Systems). Approximately 5000 viable cells per ml was then seeded in an ultra-low adherent 60 mm plate and incubated at 37° C. and 5% CO2 for two weeks without disturbing the plates. After the mammospheres formed, fresh media with or without Adriamycin (5 μM), SNI-1 (2.5 or 5.0 μM), or a combination of these agents was added and the cells incubated for additional 48 h at 37° C. and 5% CO2. The mammospheres in the untreated and treated plates were photographed, and the cells were then dissociated to determine their viabilities by the MTT assay (Cheriyan et al. (2016) Oncotarget 7, 73370-73388).
A short description of data set [4]: MTT cell viability. The data set is classed as cell-based, murine. The settings on record: mouse, 4T1 TNBC cells; 1.0, 2.5, 5.0, or 10.0 μM over 24 h; read-out: loss of viability.
Protocol: (§2) The murine TNBC cell line 4T1 that was derived from a spontaneously arising BALB/c mammary tumor were obtained from the Karmanos Cancer Institute (KCl), and were maintained in culture (Cheriyan et al. (2016) Oncotarget 7, 73370-73388). […] The cell culture media were also supplemented with 10% FBS, 100 units/ml of penicillin, and 100 μg/ml of streptomycin, and the cells were maintained at 37° C. and 5% CO2. For cell growth and MTT studies, the cells were cultured in fresh media with 5%-10% FBS prior to their treatments with various agents.
(§3) Cell Viability, Immunoprecipitation and Western Blot assays: 500-1000 cells were seeded in each well of 96 well plate and then either untreated (control) or treated with various agents for noted times. After treatment, MTT reagent was added at 0.5 mg/ml concentration for 2-4 hours at 37° C. DMSO was added to solubilize formazan and the plate was read at 570 nm in a plate reader. The histograms indicating levels of cell viability were generated by plotting the net absorbances (Rishi et al. (2003) J Biol Chem 278, 33422-33435; and Rishi et al. (2006) J Biol Chem 281, 13188-13198).
A further data set concerns 4T1 TNBC cells. Nature of the data set: MTT cell viability. The data set is classed as cell-based, murine. The following applies: Mus musculus, 72 h.
Another data set deals with 4T1 TNBC tumors. Nature of the data set: 4T1 TNBC syngeneic tumor efficacy study in Balb/c mice. The data set is classed as in vivo, mouse. On the procedure: Establishment of TNBC cell-derived xenografts in Syngeneic mice: Generation of 4T1 TNBC cell-derived sub-cutaneous xenografts in Balb/c mice were performed (Cheriyan et al. (2016) Oncotarget 7, 73370-73388; and Cheriyan et al. (2017) Oncotarget 8, 104928-104945). BALB/cAnNCr, 6-8-weeks old, female mice were purchased from Charles River Laboratories (Horsham, Pa.). Following suitable acclimation of animals, 1×10^6 4T1 TNBC cells were re-suspended in 200 μl of sterile saline, and implanted in the flanks using a 27-gauge needle. Tumors were allowed to grow to 500-1000 mg (˜10 days), and the aseptically harvested, minced into 3-4 mm^3 (30 mg) fragments and transplanted SC into naïve recipient mice using a standard 12 gauge trocar to serially maintain the tumor in vivo. For efficacy studies, tumors serially maintained in vivo were aseptically harvested and minced into 3-4 mm^3 (30 mg) fragments, then bilaterally transplanted subcutaneously along the flanks using a standard 12 gauge trocar. […] For the efficacy studies, SNI-1 was formulated in 8% DMSO (v/v) and 8% Cremophor (v/v) in cell grade water, pH4 as diluent.
Clinical grade ADR stock (2 mg/mL) was diluted to the appropriate concentration with cell grade water; pH4 and clinical grade CIS (1 mg/ml) diluted with USP 0.9% saline; pH6). Mice were monitored daily for changes in condition and body weight. Tumors were measured three times weekly by caliper and tumor volume (mg) was calculated using the following formula: (A×B2)/2 where A and B are the tumor length and width (in mm), respectively. […] Efficacy was also assessed quantitatively using tumor growth delay (T−C) defined as the difference between the median time (in days) required for the treatment group tumors (T) to reach 1000 mg and the median time (days) for the control group tumors to reach the same volume. Post last treatment, tumor tissue and samples from various organs (spleen, liver, kidney, heart, bone, and lungs) were collected. Additionally, the whole blood samples were obtained from a representative tumor-bearing mouse from each group via terminal cardiac puncture. Immuno-histochemical analyses of the tumor and tissue samples were performed for expression of activated RelA (serine 536 phosphorylated p65), total RelA, cleaved caspase-3, and CARP-1 proteins. The levels of pro-inflammatory cytokines in the sera were analyzed by sandwich ELISA assays following methods detailed herein (Cheriyan et al. (2016) Oncotarget 7, 73370-73388; and Cheriyan et al. (2017) Oncotarget 8, 104928-104945).

In a further data set the test system is HeLa NEMO ko cells. The data set can be described thus: MTT cell viability. In kind it is cell-based, human.
The subject of a further data set is MDR1. Nature of the data set: Levels of drug efflux pump MDR1. The data set is classed as cell-based, human. The settings on record: MDA-MB-468 cells. The source says:
Of note is that SNI-1 in combination with Adriamycin provoked a greater inhibition of tumor growth when compared with the tumor growth inhibition noted in animals treated with either agent alone. […] Since TNBCs and many other cancers are often known to express drug efflux pumps that contribute to lower efficacy of drugs in clinic and development of drug-resistant tumors, it is likely that the presence/expression of these drug efflux pumps function in part to interfere with a robust anti-tumor response to a combination of SNI-1 and Adriamycin.

Protocol for 4T1 TNBC cells: as §2, §3

Turning to `Cc1ccc(-n2nnnc2SCC(=O)c2ccc(O)c(O)c2)cc1` [SNI-1, 1-(3,4-dihydroxyphenyl)-2-{(1-(4-methylphenyl)-1H-tetrazol-5-yl)thio}ethanone], the loss of viabilities result in the data set on HeLa CARP-1 ko cells was “failed to provoke any loss of viabilities”. Moreover, the cytotoxicity in the data set “MTT cell viability [1]” is about 30%. Moreover, the “expression of cleaved RIPK1” value in the data set on cleaved RIPK1 is given as “induced expression of cleaved RIPK1”. Besides, the “p65 activation and NEMO phosphorylation by Adriamycin or Cisplatin” value in data set [2] is “diminished p65 activation and NEMO phosphorylation”. Moreover, the “secretion of TNFα and IL-1β” value with murine TNBC cells is listed as “failed to cause increase”. Moreover, in data set [3], the “growth/viability of mammospheres” value is reported as “failed to inhibit growth of mammospheres”. For the same compound, the cytotoxicity at 24 h in “MTT cell viability [4]” was 10 to 20%. This compound yielded an IC50 with 4T1 TNBC cells of 4 to 4.5 µM. For the same compound, in the data set with 4T1 TNBC tumors (70 mg/kg/dose i.p. QD 1-13), the “inhibition of tumor growth” value was “absent to minimal inhibition of tumor growth” and the “toxicities in the animals” value is listed as “did not provoke toxicities”. In the data set on 4T1 TNBC tumors (mouse, in vivo), the “activated caspase-3 in normal tissues (immuno-histochemistry)” value is listed as “failed to show presence of activated caspase-3”; the “hematoxylin and eosin staining of lungs, spleen, heart, liver, kidneys, and bone marrow” value was “did not indicate microscopic alterations”. The “cleaved caspase-3 in tumors (immuno-histochemistry)” value with 4T1 TNBC tumors (versus untreated control animal) is listed as “strong presence of cleaved caspase-3”. Also, the “loss of viabilities versus similarly treated wild-type HeLa cells” value in the data set on HeLa NEMO ko cells is “further significant loss of viabilities”. The “levels of drug efflux pump MDR1” value with MDR1 was “robust increase”.
